In patent US20220372430A1, “PROTISTS ENRICHED WITH LIPIDS RICH IN POLYUNSATURATED FATTY ACIDS” (BIOREA, priority 2015, published 2022):

What was measured:
Schizochytrium limacinum = settings: added exogenously to the culture medium of Schizochytrium, in particular Schizochytrium limacinum; cited from earlier work
Crypthecodinium cohnii = settings: n-dodecane (oxygen carrier) added to culture medium of Crypthecodinium cohnii; cited from earlier work
[1] = system: Schizochytrium limacinum ATCC-MYA1381; test: Culture of Schizochytrium limacinum in medium with a selenium-containing compound; fatty acid profile of total lipids by GC-FID; format: cell-based; settings: 5 mg of selenium/L in culture medium, incubation 187 h
Description: A strain of Schizochytrium limacinum ATCC-MYA1381 was obtained from the ATCC bank (www.atcc.org).
The growth characteristics as well as the production of lipids by Schizochytrium limacinum were measured in the presence of different forms of selenium and compared in the absence of such additives (control referenced “Without Se” in the figures).
Pre-culture of the strain Schizochytrium limacinum ATCC-MYA1381 was carried out in standard liquid medium, the composition of which is given in Table 1. To this end, starter cultures of 50 mL were started in a 250 mL Erlen flask from a colony isolated on 633 M3 chytrid agar (www.atcc.org) and cultured at 25° C.±1° C. in heterotrophy for 48 h in this standard liquid medium. The 100 mL inoculum is then started in a 500 mL Erlen flask from these “starter” cultures at an initial concentration of 1.0×10^6 cells/m/L in the same culture conditions as the latter for 4 days. The cultures were continuously aerated by orbital stirring at 100 rpm (“revolutions per minute”).
The cultures for enrichment with selenium-containing compounds were started from the inoculum at an initial concentration of 1.0×10^6 cells/mL for a final volume of 400 mL in a 2.0 L Erlen flask at 25° C.±1° C. in heterotrophy for 187 h.
The cultures were continuously aerated by orbital stirring at 100 rpm. […]
The total concentration of biomass was monitored by measuring the dry mass (filtration on GFC filter, Whatman, then drying in an oven under vacuum, 70° C. and −0.8 bar (80 kPa), for 24 h minimum before weighing). 10^7 cells/mL were extracted in order to quantify the total lipids. […] In order to ensure complete extraction of the lipids, the tube was kept under stirring on a rocker for 6 hours in darkness, then stored at −20° C. before being analyzed by GC-FID (gas chromatography with flame ionization detection) in order to determine the quantity and the profiles of the total fatty acids extracted. […]

[2] = system: Crypthecodinium cohnii CCMP 316; test: Culture of Crypthecodinium cohnii in medium containing selenomethionine; fatty acid profile and total lipids; format: cell-based
Description: The total concentration of biomass was monitored by measuring the dry mass (filtration on GFC filter, Whatman, then drying in an oven under vacuum, 70° C. and −0.8 bar (80 kPa), for 24 h minimum before weighing). 10^7 cells/mL were extracted in order to quantify the total lipids. The method for extracting lipids is known to a person skilled in the art and is as described by the publication “Bligh E. G. & Dyer W. J., A rapid method of total lipid extraction and purification, Can. J. Biochem. Physiol 37 1959 911-917”, this method having been slightly adapted for microalga cells. Thus, for each measurement, approximately 10 mL of culture (biomass and medium), freshly sampled, was washed with demineralized water so as to remove the extracellular salts before lyophilization, then placed in a glass tube and centrifuged for 10 mins at 3600 g and at 4° C. After centrifugation, the supernatant was removed and the pellet containing the cells was lyophilized. Extraction was carried out with 6 mL of a monophasic CHCl3/MeOH (chloroform/methanol) mixture in proportions of 2/1 (V/V). In order to ensure complete extraction of the lipids, the tube was kept under stirring on a rocker for 6 hours in darkness, then stored at −20° C. before being analyzed by GC-FID (gas chromatography with flame ionization detection) in order to determine the quantity and the profiles of the total fatty acids extracted.
It was produced in the same way as in Example 1, except that the protist is Crypthecodinium cohnii instead of Schizochytrium limacinum, and that a single source of selenium was used: selenomethionine (“SeMet”).
Crypthecodinium cohnii is a protist, and more precisely a heterotrophic microalga. The strain Crypthecodinium cohnii CCMP 316 was obtained from the NCMA bank (https://ncma.bigelow.org).
The results obtained are shown in FIG. 4 which gives respectively, for Crypthecodinium cohnii after incubation for 187 h, the percentage of compound in the total lipids on the y-axis, for each of the compounds (PUFA, DHA and SFA) shown on the x-axis, in the presence of selenomethionine (reference “With SeMet”), or in the absence of a selenium-containing compound (reference “Without Se”).

C[N+](C)(C)CC(=O)[O-] [glycine betaine]
fermentation yield of polyunsaturated fatty acids (Schizochytrium limacinum): significantly increase

CCCCCCCCCCCC [n-dodecane]
production of DHA, of total lipids (Crypthecodinium cohnii): 51%

O=[Se](O)O [selenite, sodium selenite]
percentage of DHA in the total lipids ([1]; control without Se 41%): 54% | percentage of SFA in the total lipids ([1]; control without Se 44%): 26% | percentage of PUFA in the total lipids ([1]; control without Se 53%): 73%

C[Se]CC[C@H](N)C(=O)O [selenomethionine]
percentage of DHA in the total lipids ([2]; 5 mg/L of selenium in culture medium, incubation 187 h, control without Se 24%): 34% | percentage of PUFA in the total lipids ([2]; 5 mg/L of selenium in culture medium, incubation 187 h, control without Se 25%): 35% | percentage of SFA in the total lipids ([2]; 5 mg/L of selenium in culture medium, incubation 187 h, control without Se 64%): 53.5% | increase in total lipid content in the dry biomass relative to the control medium ([2]; selenium-containing culture medium versus control medium): 34%

OC[C@H]1O[C@H](O[C@H]2O[C@H](CO)[C@@H](O)[C@H](O)[C@H]2O)[C@H](O)[C@@H](O)[C@@H]1O [trehalose]
fermentation yield of polyunsaturated fatty acids (Schizochytrium limacinum): significantly increase
